Entries after “also recorded” stand apart in the source; their conditions may differ. Residues, ends and D or L forms follow the SMILES beside them. *: point of attachment. Cbz = O=C(OCc1ccccc1)*
Key:
[1] = test system: leukemia stem cells (LSCs) CD34+CD38low or negCD123+ from AML patient samples; assay: High throughput functional drug screen (72-hour exposure, CellTiter Glo viability) on FACS sorted LSCs; assay type: cell-based, human; design: AUC Stem Mean: unit not given here; settings: for LSC drug response in dose response curves: FIG. 1C; for mean IC50 of LSC samples compared to predicted plasma concentration: FIG. 9, expected plasma concentration in patients with typical dosing; for AUC Stem Mean: mean area under dose response curve across patient samples, 72-hour exposure, 8 concentrations; for Effectiveness vs. LSCs (AUCstem mean < mitomycin C AUCblast mean, p<0.1): aggregate viability data of patient samples, in vitro 72 h
Description: (§1) Isolation of blasts and FACS isolation of LSCs: CD34+ blasts were enriched to >90% using immunomagnetic beads (QuadroMACS). Fluorescence activated cell sorting was performed in a biosafety cabinet enclosed FACS-Aria II (Becton-Dickinson; San Jose, Calif.) housed in the University of Washington Core Cell Analysis Facility where voltage was standardized and calibration was performed daily. Mononuclear cells were stained with allophycocyanin H7 (APC-H7) conjugated anti-human CD45, allophycocyanin (APC) conjugated anti-human CD34, phycoerythrin-Cy7 (PE-Cy7) conjugated anti-human CD38 and phycoerythrin (PE) conjugated anti-human CD123 (all from BD Biosciences Pharmingen, San Jose, Calif.). Initially a blast gate was applied for forward scatter vs. side scatter, then sequential gates for CD45 vs. side scatter, CD34+ and CD38^low or neg, then CD123+ cells to yield the LSCs. The CD38low population was defined by CD38 above the isotype control and below that of mature precursors. Flow cytometry data analysis was performed using FlowJo software (Tree Star, Inc. Ashland, Oreg.).
(§2) After overnight incubation on matrix protein coated 384 well plates, drugs were added to each well using a CyBio Well Vario liquid handler (Amalytik Jena). The cell populations were analyzed for survival after a 72-hour exposure to 8 customized drug concentrations (within the range of 5 pM to 100 microM) of each drug spanning 4 logs. Post exposure viability was measured using CellTiter Glo luminescent reagent (Promega, Madison, Wis.) per manufacturer protocol, then the plates were analyzed with the Envision Multi-label plate reader (Perkin Elmer, Waltham, Mass.). XLFit software (IDBS, Guildford, Surrey, United Kingdom) was used to analyze the data and generate dose response curves based on standard 4-parameter logistic fit. For each plate, data were normalized to DMSO 100% viability and blank controls.
(§3) Area under the curve (AUC) was calculated for each dose response curve. For the 4 patient samples, two-sample two-tailed t-tests were used for group comparisons of AUC values to determine drug specificity and efficacy.
(§4) Drug specificity was defined by group comparisons between AUCs for each drug and cell type across patient samples. […] Group comparisons for categorical variable were completed using Fisher's exact test.

[2] = test system: AML blasts (CD45dim, side scatter low) from patient samples; assay: High throughput functional drug screen (72-hour exposure, CellTiter Glo viability) on AML blasts; assay type: cell-based, human; settings: for mean IC50 of blast samples compared to predicted plasma concentration: FIG. 9, expected plasma concentration in patients with typical dosing
Description: as §1
Functional Drug Screen: A CLIA-validated in vitro sensitivity assay was performed that included both FDA approved and investigational drugs. ‘Oncopane11’ comprised of 153 drugs was used for HTS of patient samples and an earlier generation panel of 160 drugs was used for HTS of the NOD/SCID IL2R γc−/− mouse engraftment sample. As detailed above, for the 4 patient samples, using FACS, the blast population (CD45^dim, side scatter^low) was confirmed to be >90% of the viable white blood cell fraction, and the LSC subpopulation (CD34^+CD38^low or negCD123^+) was isolated. For the NOD/SCID IL2R γc−/− mouse engraftment sample, both the pre-engraftment AML blasts (>90% blasts by FACs) and splenic mononuclear cells (91% hCD45+ engrafting subclone as above) were assayed. After overnight incubation on matrix protein coated 384 well plates, drugs were added to each well using a CyBio Well Vario liquid handler (Amalytik Jena). The cell populations were analyzed for survival after a 72-hour exposure to 8 customized drug concentrations (within the range of 5 pM to 100 microM) of each drug spanning 4 logs. Post exposure viability was measured using CellTiter Glo luminescent reagent (Promega, Madison, Wis.) per manufacturer protocol, then the plates were analyzed with the Envision Multi-label plate reader (Perkin Elmer, Waltham, Mass.). XLFit software (IDBS, Guildford, Surrey, United Kingdom) was used to analyze the data and generate dose response curves based on standard 4-parameter logistic fit. For each plate, data were normalized to DMSO 100% viability and blank controls.
as §3
Drug specificity was defined by group comparisons between AUCs for each drug and cell type across patient samples. For blast specific drugs AUCstem mean>AUCblast mean and for LSC specific drugs AUC^stem mean<AUC^blast mean (p<0.1). […] This approach was selected to detect differences within the small sample size, while still maintaining statistical stringency and capturing trends observed in the data set. Group comparisons for categorical variable were completed using Fisher's exact test.

[3] = test system: AML blasts vs. leukemia stem cells (LSCs); assay: Drug specificity: group comparison of AUCs, blasts vs. LSCs across patient samples; assay type: cell-based, human; settings: aggregate viability data of patient samples; pairwise p-value<0.1
Description: as §2, §3, §4

pediatric AML blasts = settings: literature; cited from earlier work
AML = settings: literature; cited from earlier work
LSCs = settings: literature; cited from earlier work

Row | Structure (SMILES) | Drug specificity (blast specific: AUCstem mean>AUCblast mean; LSC specific: AUCstem mean<AUCblast mean) [3] | AUC Stem Mean [1] | Effectiveness vs. LSCs (AUCstem mean < mitomycin C AUCblast mean, p<0.1) [1] | further results
1 | Nc1ccn([C@@H]2O[C@H](CO)[C@@H](O)C2(F)F)c(=O)n1 [gemcitabine] |  |  |  | LSC drug response in dose response curves ([1]; patient sample on the left): sensitive
2 | COc1cc([C@@H]2c3cc4c(cc3[C@@H](O[C@@H]3O[C@@H]5CO[C@@H](C)O[C@H]5[C@H](O)[C@H]3O)[C@H]3COC(=O)[C@H]23)OCO4)cc(OC)c1O [Etoposide] | blast cell specific; also recorded: blast cell-specific |  |  | mean IC50 of blast samples compared to predicted plasma concentration [2]: less than predicted plasma concentration; mean IC50 of LSC samples compared to predicted plasma concentration [1]: greater than the predicted plasma concentration
3 | Cc1ccc(C(=O)Nc2ccc(CN3CCN(C)CC3)c(C(F)(F)F)c2)cc1C#Cc1cnc2cccnn12 [Ponatinib] |  | 0.00085 |  | 
4 | CC(=O)[C@]1(O)Cc2c(O)c3c(c(O)c2[C@@H](O[C@H]2C[C@H](N)[C@H](O)[C@H](C)O2)C1)C(=O)c1ccccc1C3=O [Idarubicin] | blast cell specific; also recorded: blast cell-specific |  |  | mean IC50 of blast samples compared to predicted plasma concentration [2]: less than predicted plasma concentration; LSC drug response in dose response curves ([1]; patient sample on the left): resistant; mean IC50 of LSC samples compared to predicted plasma concentration [1]: greater than the predicted plasma concentration
5 | Cc1ccc([N+](=O)[O-])cc1S(=O)(=O)N(C)/N=C/c1cnc2ccc(Br)cn12 [PIK-75] |  | 0.0041 | effective | 
6 | CNC(=O)c1cc(Oc2ccc(NC(=O)Nc3ccc(Cl)c(C(F)(F)F)c3)cc2)ccn1 [Sorafenib] | LSC specific; also recorded: LSC-specific | 0.0045 | effectively killed; also recorded: effective | 
7 | CN1CCC(CNc2ccc3ncc(-c4cccc(OC(F)(F)F)c4)n3n2)CC1 [SGI-1776] |  | 0.00076 |  | 
8 | CO[C@H]1C(=O)[C@]2(C)[C@@H](OC)C[C@H]3OC[C@@]3(OC(C)=O)[C@H]2[C@H](OC(=O)c2ccccc2)[C@]2(O)C[C@H](OC(=O)[C@H](O)[C@@H](NC(=O)OC(C)(C)C)c3ccccc3)C(C)=C1C2(C)C [Cabazitaxel] |  | 0.0031 | effective | effect vs. pediatric AML blasts in vitro (pediatric AML blasts): effective
9 | CC1(COc2ccc3c(c2)ncn3-c2ccc3cccc(N4CCC(N)CC4)c3n2)COC1 [Crenolanib] |  | 0.0054 |  | 
10 | COc1cccc2c1C(=O)c1c(O)c3c(c(O)c1C2=O)C[C@@](O)(C(C)=O)C[C@@H]3O[C@H]1C[C@H](N)[C@H](O)[C@H](C)O1 [daunorubicin] | non-specific |  |  | mean IC50 of blast samples compared to predicted plasma concentration [2]: opposite pattern; LSC drug response in dose response curves ([1]; patient sample on the right): resistant; mean IC50 of LSC samples compared to predicted plasma concentration [1]: opposite pattern
11 | Nc1nc(Cl)nc2c1ncn2[C@H]1C[C@H](O)[C@@H](CO)O1 [Cladribine] | blast cell specific; also recorded: blast cell-specific |  |  | mean IC50 of blast samples compared to predicted plasma concentration [2]: less than predicted plasma concentration; mean IC50 of LSC samples compared to predicted plasma concentration [1]: greater than the predicted plasma concentration
12 | Nc1ccccc1NC(=O)c1ccc(CNc2nccc(-c3cccnc3)n2)cc1 [Mocetinostat] |  | 0.0029 | LSC effective | 
13 | Nc1ccn([C@@H]2O[C@H](CO)[C@@H](O)[C@@H]2O)c(=O)n1 [Cytarabine] | blast cell specific; also recorded: blast cell-specific |  |  | mean IC50 of blast samples compared to predicted plasma concentration [2]: less than predicted plasma concentration; LSC drug response in dose response curves ([1]; patient sample on the left): resistant; LSC drug response in dose response curves ([1]; patient sample on the right): resistant; mean IC50 of LSC samples compared to predicted plasma concentration [1]: greater than the predicted plasma concentration
14 | O=C1c2c(O)ccc(O)c2C(=O)c2c(NCCNCCO)ccc(NCCNCCO)c21 [mitoxantrone] | trended towards blast cell specific; also recorded: trended towards blast cell-specific |  |  | mean IC50 of blast samples compared to predicted plasma concentration [2]: less than predicted plasma concentration; mean IC50 of LSC samples compared to predicted plasma concentration [1]: less than predicted plasma concentration
15 | CC(C)C[C@@H](C=O)NC(=O)[C@H](CC(C)C)NC(=O)[C@H](CC(C)C)NC(=O)OCc1ccccc1 [MG-132] (Cbz-Leu-Leu-Leu-aldehyde) |  | 0.0039 |  | 
16 | CC(C)C[C@H](NC(=O)[C@H](CCc1ccccc1)NC(=O)CN1CCOCC1)C(=O)N[C@@H](Cc1ccccc1)C(=O)N[C@@H](CC(C)C)C(=O)[C@@]1(C)CO1 [Carfilzomib] |  |  | not effective | clinical effect in AML patients (AML): minimal anti-leukemic effects; anti-LSC effect in vitro in prior studies (LSCs): reduced LSCs in vitro
17 | Nc1nc(Cl)nc2c1ncn2[C@@H]1O[C@H](CO)[C@@H](O)[C@@H]1F [clofarabine] | trended towards blast cell specific; also recorded: trended towards blast cell-specific |  |  | mean IC50 of blast samples compared to predicted plasma concentration [2]: less than predicted plasma concentration; mean IC50 of LSC samples compared to predicted plasma concentration [1]: greater than the predicted plasma concentration
18 | C/C=C1\NC(=O)[C@H]2CSSCC/C=C/[C@H](CC(=O)N[C@H](C(C)C)C(=O)N2)OC(=O)[C@H](C(C)C)NC1=O [Romidepsin] |  | 0.00041 |  | 
19 | CCc1cnn2c(NCc3ccc[n+]([O-])c3)cc(N3CCCC[C@H]3CCO)nc12 [Dinaciclib] |  | 0.048 |  | 
20 | CCN(CC)CCNC(=O)c1c(C)[nH]c(/C=C2\C(=O)Nc3ccc(F)cc32)c1C [Sunitinib] |  | 0.00039 |  | 
21 | CC(C)C[C@H](NC(=O)[C@H](Cc1ccccc1)NC(=O)c1cnccn1)B(O)O [bortezomib] |  |  | ineffective | 
22 | CC(C)C[C@H](NC(=O)CNC(=O)c1cc(Cl)ccc1Cl)B(O)O [ixazomib] |  |  |  | anti-LSC effect in vitro in prior studies (LSCs): anti-LSC effect was shown in vitro
23 | COCCn1c2c([n+](Cc3cnccn3)c1C)C(=O)c1ccccc1C2=O [YM-155] |  | 0.00089 | effective | LSC drug response in dose response curves ([1]; patient sample on the left): sensitive
24 | Cc1csc(-c2nnc(Nc3ccc(Oc4ncccc4-c4ccnc(N)n4)cc3)c3ccccc23)c1 [AMG-900] |  |  |  | LSC drug response in dose response curves ([1]; patient sample on the right): sensitive
25 | Nc1ncn([C@@H]2O[C@H](CO)[C@@H](O)[C@H]2O)c(=O)n1 [Azacitidine] | LSC specific; also recorded: LSC-specific |  | did not result in appreciable cytotoxicity | 
26 | CO[C@@]12[C@H](COC(N)=O)C3=C(C(=O)C(C)=C(N)C3=O)N1C[C@@H]1N[C@@H]12 [Mitomycin C] | blast cell specific |  |  | Blast response to mitomycin C in dose response curves ([2]; FIG. 3, both patient samples): sensitive; LSC response to mitomycin C in dose response curves ([1]; FIG. 3, both patient samples): resistant
